Key:
Experiment in all cases: WST-1 cell viability assay
Calu-1 = settings: Calu-1, NRP1-expressing; 0, 1, 2, and 4 μM, 48 hours
HCC44 = settings: HCC44, NRP1-expressing; 0, 1, 2, and 4 μM, 48 hours
SK-LU-1 = settings: SK-LU-1, NRP1-expressing; 0, 1, 2, and 4 μM, 48 hours
H1299 = settings: H1299, NRP1-expressing; 0, 1, 2, and 4 μM, 48 hours
Calu-3 = settings: Calu-3, NRP1-expressing; 0, 1, 2, and 4 μM, 48 hours
A549 = settings: A549, NRP1-expressing; 0, 1, 2, and 4 μM, 48 hours
H441 = settings: H441, NRP1-expressing; 0, 1, 2, and 4 μM, 48 hours
H460 = settings: H460, expressing no NRP1; 0, 1, 2, and 4 μM, 48 hours

Substance | cell growth inhibitory activity (WST-1) (Calu-1) | cell growth inhibitory activity (WST-1) (HCC44) | cell growth inhibitory activity (WST-1) (SK-LU-1) | cell growth inhibitory activity (WST-1) (H1299) | cell growth inhibitory activity (WST-1) (Calu-3) | cell growth inhibitory activity (WST-1) (A549) | cell growth inhibitory activity (WST-1) (H441) | cell growth inhibitory activity (WST-1) (H460)
Panitumumab [Pnm, reference compound] | showed the same inhibitory activity against cell growth | showed the same inhibitory activity against cell growth | only Pnm-TPP11 showed cell growth inhibitory activity, unlike Pnm | only Pnm-TPP11 showed cell growth inhibitory activity, unlike Pnm | showed the same inhibitory activity against cell growth | showed the same inhibitory activity against cell growth | only Pnm-TPP11 showed cell growth inhibitory activity, unlike Pnm | –
Pnm-TPP11: TPP11 peptide fused to C-terminus of Pnm heavy chain by (G4S)3 linker; heavy chain SEQ ID NO: 10, light chain SEQ ID NO: 14 | showed the same inhibitory activity against cell growth | showed the same inhibitory activity against cell growth | showed cell growth inhibitory activity | showed cell growth inhibitory activity | showed the same inhibitory activity against cell growth | showed the same inhibitory activity against cell growth | showed cell growth inhibitory activity | showed no effect

Reference: US11548915B2, “Composition for overcoming resistance to EGFR-targeting agent” (Pinetree Therapeutics, Inc., priority 2016, dated 2023)
